38 molecules from ChEMBL document CHEMBL4483862, “Open-source discovery of chemical leads for next-generation chemoprotective antimalarials” (2018) can be followed below.

For orientation: IC50 means the midpoint of a concentration-inhibition curve. One may read the IC90 as the concentration needed for an effect of 90%.

For this assay, the system named is Plasmodium berghei. Put plainly: Luciferase/luciferin-expressing antifolate-resistant parasites were used to infect a culture of HepG2 cells that were pre-incubated with compounds. Infected hepatocytes emit light due to the luciferase reaction. Assay results are presented as the percent inhibition of light emission compared to control. […]. Type of assay: functional. As to conditions: sporozoite; for IC90: read-out: LUCIFERASE INFECTION ASSAY - IC90.

[1] abbreviates: read-out: LUCIFERASE INFECTION ASSAY - IC50.

For the molecule `Cc1cc(C(=O)C(C)OC(=O)CCc2nc(=O)c3ccccc3[nH]2)c(C)n1-c1ccc(Cl)cc1` (stereo unspecified), the concentration for an effect of 90% (IC90) is above 10 µM. Where the note is “HEPG2TOX_HILL_SLOPE 0.024, HEPG2TOX_R_SQUARED 0.0218, read-out: LUCIFERASE INFECTION ASSAY - IC50”, the IC50 is above 10 µM.

For the molecule `CCOc1cc(/C=C/c2nc3cc(Cl)ccc3o2)ccc1OCC(=O)N(C(C)C)C(C)C`, the 90% effect concentration (IC90) was above 10 µM. The IC50 (PBLUC_HILL_SLOPE 2.25, PBLUC_R_SQUARED 0.0279, read-out: LUCIFERASE INFECTION ASSAY - IC50) is above 10 µM.

Take `COc1cccc(/C=c2\s/c(=C\C(=O)C(C)(C)C)n(C)c2=O)c1OC(C)C`: the IC90 was above 10 µM. Besides, under “HEPG2TOX_HILL_SLOPE 1.82, HEPG2TOX_R_SQUARED 0.577, PBLUC_HILL_SLOPE 1.88, PBLUC_R_SQUARED 0.501, read-out: LUCIFERASE INFECTION ASSAY - IC50”, the 50% inhibitory concentration (IC50) stood at 8.5 µM.

For `Nc1ccccc1SC(CC(=O)c1ccccc1)c1ccc([N+](=O)[O-])cc1` (stereo unspecified), the IC90 was above 8.72 µM. Moreover, the IC50 (PBLUC_HILL_SLOPE 4.35, PBLUC_R_SQUARED 0.338, read-out: LUCIFERASE INFECTION ASSAY - IC50) was determined as 8.12 µM.

Regarding `CCOc1ccc(-c2nc(CC(=O)NCc3ccnc(OC)c3)cs2)cc1`, the concentration for an effect of 90% (IC90) was 3.46 µM. Further, the IC50 (PBLUC_HILL_SLOPE 12.8, PBLUC_R_SQUARED 0.477, read-out: LUCIFERASE INFECTION ASSAY - IC50) came out at 2.91 µM.

On to `O=C(Nc1cccc(CNc2ccnc3cc(Cl)ccc23)c1)C1CC1`, for which the concentration for an effect of 90% (IC90) was above 10 µM. For the setting “PBLUC_HILL_SLOPE 2.98, PBLUC_R_SQUARED 0.123, read-out: LUCIFERASE INFECTION ASSAY - IC50”, the IC50 was found to be 5.8 µM.

In the case of `CC(=O)O[C@H]1C[C@@H](O[C@@H]2C(C)O[C@H](O[C@@H]3C(C)O[C@@H](O[C@H]4CC[C@@]5(C)C(CCC6C5C[C@@H](O)[C@]5(C)[C@@H](C7=CC(=O)OC7)CC[C@]65O)C4)C[C@@H]3O)C[C@@H]2O)OC(C)[C@H]1O[C@@H]1O[C@H](CO)[C@@H](O)[C@H](O)[C@H]1O` (stereo partly specified), the IC90 was above 3.35 µM. For the same molecule, the IC50 (HEPG2TOX_HILL_SLOPE 2.2, HEPG2TOX_R_SQUARED 0.634, PBLUC_HILL_SLOPE 2.28, PBLUC_R_SQUARED 0.618, read-out: LUCIFERASE INFECTION ASSAY - IC50) came to 1.57 µM.

Regarding `CCCn1c(N)c(C(=O)COC(=O)C2(c3ccc(F)cc3)CCCC2)c(=O)[nH]c1=O`, the IC90 turned out to be 8.39 µM. Where the note is “PBLUC_HILL_SLOPE 3.75, PBLUC_R_SQUARED 0.743, read-out: LUCIFERASE INFECTION ASSAY - IC50”, the IC50 is 4.66 µM.

Turning to `CCOc1ccc(NC(=O)CCOc2cccc(C)c2)cc1`, the concentration for an effect of 90% (IC90) was above 11 µM. Also, the half-inhibitory concentration (IC50) under setting [1] is above 11 µM.

As to `COc1cc([N+](=O)[O-])ccc1NC(=O)CN1CCc2ccccc2C1`, the IC90 was above 10 µM. Further, the 50% inhibitory concentration (IC50) under setting [1] was above 10 µM.

For the molecule `CC(Nc1ncnc2ccsc12)c1cccc2ccccc12` (stereo unspecified), the IC90 is above 10 µM. For the same molecule, the IC50 under setting [1] amounted to 2.13 µM.

Take `c1ccc(-c2cc3c(NCCCN4CCN(c5ncccn5)CC4)ncnc3s2)cc1`: the concentration for an effect of 90% (IC90) stood at 4.71 µM. Further, the IC50 (HEPG2TOX_HILL_SLOPE 0.225, HEPG2TOX_R_SQUARED 0.56, PBLUC_HILL_SLOPE 1.89, PBLUC_R_SQUARED 0.636, read-out: LUCIFERASE INFECTION ASSAY - IC50) is 1.47 µM.

Consider `CC(C)c1ccc(NC(=O)c2ccc(N(C)C)c([N+](=O)[O-])c2)cc1`, for which the IC90 was determined as 8.31 µM. Moreover, under “PBLUC_HILL_SLOPE 3.41, PBLUC_R_SQUARED 0.504, read-out: LUCIFERASE INFECTION ASSAY - IC50”, the IC50 worked out at 4.36 µM.

In the case of `CC(=O)NC12CC3CC(C1)CC(C(=O)Nc1ccc4c(c1)-c1ccccc1C4)(C3)C2`, the concentration for an effect of 90% (IC90) turned out to be 5.37 µM. In addition, the IC50 (PBLUC_HILL_SLOPE 1.58, PBLUC_R_SQUARED 0.82, read-out: LUCIFERASE INFECTION ASSAY - IC50) came to 1.34 µM.

With `C(=N\c1ccc2ccccc2c1)/Nc1ccc2ccccc2c1`, the 90% effect concentration (IC90) was above 11.1 µM. Further, the IC50 (HEPG2TOX_HILL_SLOPE 0.512, HEPG2TOX_R_SQUARED 0.0455, PBLUC_HILL_SLOPE 17.2, PBLUC_R_SQUARED 0.33, read-out: LUCIFERASE INFECTION ASSAY - IC50) was determined as 10.8 µM.

As to `Cc1ccc(C(=O)Nc2nc3ccccn3c2C(=O)NC(C)C)cc1`, the 90% effect concentration (IC90) is above 9.81 µM. The IC50 (PBLUC_HILL_SLOPE 15.2, PBLUC_R_SQUARED 0.478, read-out: LUCIFERASE INFECTION ASSAY - IC50) is 8.52 µM.

As for `OC(C#CC(O)(c1ccccc1)c1ccccc1)(c1ccccc1)c1ccccc1`, the IC90 was above 8.45 µM. The IC50 under setting [1] is above 8.45 µM.

As for `C/C(=N\NC(=S)NCC(C)(C)C)c1cc(F)ccc1O`, the concentration for an effect of 90% (IC90) is above 11.1 µM. The half-inhibitory concentration (IC50) under setting [1] was above 11.1 µM.

`COc1ccc(-c2cnc3cnc(-c4cccc(NS(C)(=O)=O)c4)cn23)cn1`: the 90% effect concentration (IC90) worked out at 7.13 µM. The half-inhibitory concentration (IC50) under setting [1] came to 4.3 µM.

In the case of `O=C(Nc1ccc2c(c1)OC1(CCCCC1)O2)c1ccc[nH]c1=S`, the concentration for an effect of 90% (IC90) stood at 4.02 µM. Besides, the half-maximal inhibitory concentration (IC50) (PBLUC_HILL_SLOPE 0.703, PBLUC_R_SQUARED 0.661, read-out: LUCIFERASE INFECTION ASSAY - IC50) stood at 0.176 µM.

For the molecule `COc1ccccc1NC(=O)Cc1noc(CNc2ccc(F)cc2C)n1`, the IC90 was above 10 µM. For the same molecule, under setting [1], the 50% inhibitory concentration (IC50) was above 10 µM.

Regarding `Cc1nn(Cc2ccccc2)c(Cl)c1C(=O)OC(C)C(=O)N1CCN(Cc2ccccc2)CC1` (stereo unspecified), the concentration for an effect of 90% (IC90) was above 10 µM. For the same molecule, for the setting “HEPG2TOX_HILL_SLOPE 0.446, HEPG2TOX_R_SQUARED 0.649, read-out: LUCIFERASE INFECTION ASSAY - IC50”, the 50% inhibitory concentration (IC50) is above 10 µM.

In the case of `CC(=O)Nc1cnc(-c2ccccc2N(C)C)cn1`, the IC90 was above 12.9 µM. The IC50 under setting [1] is above 12.9 µM.

For the molecule `Cc1onc(-c2ccc(Cl)cc2)c1-c1ccnc(SCC(=O)c2ccc([N+](=O)[O-])cc2)n1`, the IC90 was above 7.07 µM. The IC50 (FFLUC_HILL_SLOPE 14.7, FFLUC_R_SQUARED 0.642, read-out: LUCIFERASE INFECTION ASSAY - IC50) was above 7.07 µM.

In the case of `Cc1c(Cl)cccc1N=C(SCC(=O)N(C)C1CCCCC1)C(C#N)c1nc2ccccc2s1` (stereo unspecified), the 90% effect concentration (IC90) was above 10 µM. Moreover, under setting [1], the concentration for half-maximal inhibition (IC50) is above 10 µM.

Turning to `COc1ccc2c(-c3ccccc3)cc(SC(C)C(=O)N3CCNC3=O)nc2c1` (stereo unspecified), the IC90 was found to be 1.25 µM. Moreover, the IC50 (FFLUC_HILL_SLOPE 2.47, FFLUC_R_SQUARED 0.615, PBLUC_HILL_SLOPE 18.2, PBLUC_R_SQUARED 0.514, read-out: LUCIFERASE INFECTION ASSAY - IC50) was 1.11 µM.

With `Cc1c(C)n(CCCO)c2ncn3nc(COc4ccccc4)nc3c12`, the IC90 turned out to be 0.36 µM. For the same molecule, under “FFLUC_HILL_SLOPE 0.782, FFLUC_R_SQUARED 0.957, PBLUC_HILL_SLOPE 0.808, PBLUC_R_SQUARED 0.882, read-out: LUCIFERASE INFECTION ASSAY - IC50”, the IC50 is 0.0238 µM.

On to `CC(C)c1ccc(Nc2nccc3nc(-c4cccc(F)c4)[nH]c23)cc1`, for which the concentration for an effect of 90% (IC90) was above 10 µM. Moreover, the 50% inhibitory concentration (IC50) (HEPG2TOX_HILL_SLOPE 1.91, HEPG2TOX_R_SQUARED 0.651, PBLUC_HILL_SLOPE 0.872, PBLUC_R_SQUARED 0.722, read-out: LUCIFERASE INFECTION ASSAY - IC50) was 1.39 µM.

Regarding `Cc1ccc2c(Cl)c(C(=O)Nc3nonc3-c3ccccc3)sc2c1`, the IC90 is 8.14 µM. Moreover, the IC50 under setting [1] was found to be 7.41 µM.

As to `COCCCNc1nccc2nc(-c3cccc(C(C)C)c3)[nH]c12`, the IC90 is above 10 µM. The half-inhibitory concentration (IC50) (HEPG2TOX_HILL_SLOPE 0.453, HEPG2TOX_R_SQUARED 0.728, PBLUC_HILL_SLOPE 2.13, PBLUC_R_SQUARED 0.522, read-out: LUCIFERASE INFECTION ASSAY - IC50) turned out to be 4.47 µM.

Consider `CCCn1c(NC(=O)c2ccc3ncsc3c2)nc2ccccc21`, for which the 90% effect concentration (IC90) worked out at 9.62 µM. Moreover, the IC50 under setting [1] worked out at 8.47 µM.

Turning to `CC(C)Oc1cccc(-c2cn3c(-c4ccc(C(=O)NC5CC5)cc4)cnc3cn2)c1`, the IC90 amounted to 7.18 µM. Besides, the IC50 (PBLUC_HILL_SLOPE 5.31, PBLUC_R_SQUARED 0.43, read-out: LUCIFERASE INFECTION ASSAY - IC50) is 4.75 µM.

As to `O=[N+]([O-])c1ccc(N2CCc3ccccc32)cc1`, the 90% effect concentration (IC90) was above 13.7 µM. In addition, the IC50 (HEPG2TOX_HILL_SLOPE 7.98, HEPG2TOX_R_SQUARED 0.901, PBLUC_HILL_SLOPE 21.8, PBLUC_R_SQUARED 0.45, read-out: LUCIFERASE INFECTION ASSAY - IC50) came to 13.3 µM.

As for `NC(=O)c1cc(-c2csc(NC(=O)Cc3ccc(Cl)c(Cl)c3)n2)c[nH]1`, the concentration for an effect of 90% (IC90) was above 10 µM. Also, the IC50 (FFLUC_HILL_SLOPE 1.47, FFLUC_R_SQUARED 0.0625, read-out: LUCIFERASE INFECTION ASSAY - IC50) was above 10 µM.

On to `CC(OC(=O)[C@@H](Nc1ccc(C(F)(F)F)cc1Cl)C(C)C)C(=O)NC(=O)NC1CCCCC1` (stereo partly specified), for which the IC90 was found to be 6.57 µM. Besides, the IC50 (FFLUC_HILL_SLOPE 12, FFLUC_R_SQUARED 0.576, PBLUC_HILL_SLOPE 4.18, PBLUC_R_SQUARED 0.859, read-out: LUCIFERASE INFECTION ASSAY - IC50) was 3.88 µM.

Consider `Cc1cc(C(C)(C)C)cc(C(C)(C)C)[s+]1`, for which the IC90 was 7.78 µM. Also, the half-inhibitory concentration (IC50) (HEPG2TOX_HILL_SLOPE 3.48, HEPG2TOX_R_SQUARED 0.99, PBLUC_HILL_SLOPE 2.71, PBLUC_R_SQUARED 0.511, read-out: LUCIFERASE INFECTION ASSAY - IC50) turned out to be 3.46 µM.

With `Cc1c(NC(=O)c2c(F)cccc2F)cc2c(c1[N+](=O)[O-])C(C)(C)CC2(C)C`, the 90% effect concentration (IC90) is above 8.5 µM. For the same molecule, the 50% inhibitory concentration (IC50) (PBLUC_HILL_SLOPE 39, PBLUC_R_SQUARED 0.724, read-out: LUCIFERASE INFECTION ASSAY - IC50) was above 8.5 µM.

On to `CCCC(/N=C/c1cc(Cl)ccc1O)/N=C/c1cc(Cl)ccc1O`, for which the IC90 is above 9.03 µM. Moreover, the IC50 under setting [1] was above 9.03 µM.
